Reference: patent publication US12157745B2, “Heterocyclic systems and pharmaceutical compositions thereof” (University of Sharjah, priority 2018, dated 2024)

Tests used:
[1] = target: T1, transferrin receptor proteins (Homo sapiens, UniProt P02786); test: DARTS proteomic assay; type: binding
T1 construct: HEK293T cells were lysed using M-PER; endogenous in cells; host or cells: HEK293T lysate
From the text: (§1) The unique properties of compound it prompted an in-depth analysis to explore its potential novel targets.
(§2) Similarly, deregulated inositol metabolism has been observed in a number of diseases, including cancer, where inositol modulates different critical pathways in disease progression. Moreover, it is expressed consistently in bipolar disorders and Alzheimer's diseases. […] Likewise, the role of glutathione reductase is well known in cancer progression and chemoresistance. The equilibrium between the glutathione disulphide ratio is critical not only in cancer progression but also in increased oxidative stress which can lead to other disorders.
(§3) A DARTS assay was used to assess the binding of compound 1t. HEK293T cells were lysed using M-PER (Thermo Scientific, Inc.) supplemented with protease and phosphatase inhibitors (Lysis buffer). 4.7 mg/mL of protein and TNC buffer (10 mM Tris, 140 mMNaCl, 5 mM CaCl2)) was added, compound it was diluted in DMSO to 3 different concentrations (0.01 μM, 0.1 μM, 1 μM) and incubated for one hour at room temperature. Trypsin (Promega) was added and incubated for 3 hours at 37° C. Thereafter, M-PER lysis buffer was added and the samples were concentrated with Microcon 10K centrifugal filters. The proteins were identified by gel electrophoresis liquid chromatography mass spectroscopy (GelLCMS).

[2] = target: T2, inositol-3-phosphate synthase (Homo sapiens, UniProt Q9NPH2); test: DARTS proteomic assay; type: binding
T2 construct: HEK293T cells were lysed using M-PER; endogenous in cells; host or cells: HEK293T lysate
From the text: as §1, §2, §3

[3] = system: MCF7 cells; test: Cell synchronization study, antiproliferative effect on synchronized cells; type: cell-based
Protocol: Cell synchronization and tubulin study: The antiproliferative effect of the compound it was tested on MCF7 cells which were synchronized at specific phases of the cell cycle. […] One way of inhibiting cell proliferation in G2/M phase is by altering equilibrium between polymerization and depolymerization of microtubule proteins which is required for active mitotic cell division.

[4] = system: SKBr3 cells; test: Apoptosis study (western blot, caspase-3 activation); type: cell-based; details: multi-drug resistant breast cancer cells SKBr3
Protocol: Apoptosis studies: The molecular effect of compound it was evaluated by investigating its apoptotic (FIG. 5) and cell cycle arresting potentials (FIGS. 6A and 6B). Compound it arrests the cells at G0/G1 phase in MCF-7 cells (>15%) with respect to control cells after 16, 24, 48, and 72 hours of treatment.
(§4) The MCF-7, SKBR3 and HCT116 total cell lysate were prepared after 24 hours of treatment with compound it at IC50 and DIC50 doses by using 1× laemmli buffer. Total protein concentration was then estimated for each sample and 15-30 μg of protein lysate were loaded equally on 12% SDS-PAGE gel in order to detect various proteins expression levels. In short, the membrane was incubated with different primary antibodies (as mentioned in above section) (1:1000) overnight after blocking with 5% non-fat milk solution for 1 hour. The membrane was then re-probed with respective mouse/rabbit secondary antibodies (1:2000) for 1 h, and later developed by enhanced chemiluminescence (ECL) method by using a Chemidoc MP (BioRad, Germany).
The apoptotic level was measured using a kit method as per supplier's protocol. […] 2×10^6 cells were counted and re-suspended in 1 mL of binding buffer (1×). […] 400 μL of IX binding buffer was finally added to the cells and analyzed immediately by using by a flow cytometer (BD, Accuri C6).

[5] = system: HCT116; test: Full dose-response, survival of cancer cell line (SRB assay); type: cell-based; details: Homo sapiens, HCT-116; colon cancer; 48 hours of drug treatment; average of three individual experiments
From the text: (§5) Dulbecco's Modified Eagles Medium (DMEM), RPMI 1640 medium and propidium iodide (PI) were purchased from Sigma Aldrich (Darmstadt, Germany). For western blot, the antibodies; c-Myc, p^53, p^21, Bax, Bid, BclxL, GAPDH, caspase-3, caspase-9, p-ATM, p-ATR, p-Chk1, p-Chk2, p-P^53, and p-H2AX along with respective mouse/rabbit secondary antibodies were purchased from Cell Signaling Technology (Danvers, MA, USA). FITC Annexin V Apoptosis kit was purchased from BD Biosciences (New Jersey, USA). All other chemicals and solvents used were of standard analytical grade. The stock solutions of SIMR compounds were made in 100% DMSO and working solutions for treatments never exceeded >1% DMSO. The cell lines were gifted from Radiobiology and Experimental Radio Oncology lab, University Cancer Center, Hamburg University, Hamburg, Germany. F180 and HCT116 cells were cultured in DMEM media while MCF-7 and SKBR3 cells were cultured in RPMI along with 10% FBS and 5% CO2 in a humidified incubator at 37° C. The cells were grown on polystyrene T-75 (75 cm^2) culture flasks and all the experiments were performed at ˜70% cell confluency.
(§6) SRB assay was performed on DU-143 and MCF-7 cells in order to find out the sub-lethal dosage (IC50) of the synthesized compounds based on reported method with minor modifications. Briefly, 1×10^4 cells were seeded in a 96-well plate overnight and were treated with different concentrations of compounds and incubated further for 48 hours. The wells which were devoid of any treatment served as controls. After the treatment time, the plates were incubated with 50% trichloroacetic acid (TCA) at 4° C. for 1 hour. The cells were then washed, dried and exposed to 1% acetic acid for short period. Two hundred microliters of 10 mMtris base solution was then added with 10 min incubation after drying the plates and the OD was read at 492 nm by using a Multiskan™ GO (Thermo Scientific, USA) microplate Spectrophotometer.

[6] = system: SKBR3; test: as above; type: cell-based; details: Homo sapiens, SK-BR-3; breast cancer; 48 hours of drug treatment; average of three individual experiments
From the text: as §5, §6

[7] = system: MCF7; test: as above; type: cell-based; details: Homo sapiens, breast cancer, 48 hours of drug treatment, average of three individual experiments
From the text: as §5, §6

[8] = system: ATR; test: DNA damage study, ATR phosphorylation (western blot); type: cell-based; details: also its downstream target p53
Protocol: However, recruitment of phosphatidylinositol-3-kinase (PI3K) family members to the site of DNA damage is the first step of DNA damage response mechanisms and the phosphorylation of ataxia telangiectasia-mutated (ATM) or ATM-Rad3-related (ATR) kinases often follows. […] Overall, compound it was able to induce DNA damage in an ATR-Chk2 dependent pathway in aggressive breast cancer phenotypes.
as §4

T1 sequence (P02786 whole entry): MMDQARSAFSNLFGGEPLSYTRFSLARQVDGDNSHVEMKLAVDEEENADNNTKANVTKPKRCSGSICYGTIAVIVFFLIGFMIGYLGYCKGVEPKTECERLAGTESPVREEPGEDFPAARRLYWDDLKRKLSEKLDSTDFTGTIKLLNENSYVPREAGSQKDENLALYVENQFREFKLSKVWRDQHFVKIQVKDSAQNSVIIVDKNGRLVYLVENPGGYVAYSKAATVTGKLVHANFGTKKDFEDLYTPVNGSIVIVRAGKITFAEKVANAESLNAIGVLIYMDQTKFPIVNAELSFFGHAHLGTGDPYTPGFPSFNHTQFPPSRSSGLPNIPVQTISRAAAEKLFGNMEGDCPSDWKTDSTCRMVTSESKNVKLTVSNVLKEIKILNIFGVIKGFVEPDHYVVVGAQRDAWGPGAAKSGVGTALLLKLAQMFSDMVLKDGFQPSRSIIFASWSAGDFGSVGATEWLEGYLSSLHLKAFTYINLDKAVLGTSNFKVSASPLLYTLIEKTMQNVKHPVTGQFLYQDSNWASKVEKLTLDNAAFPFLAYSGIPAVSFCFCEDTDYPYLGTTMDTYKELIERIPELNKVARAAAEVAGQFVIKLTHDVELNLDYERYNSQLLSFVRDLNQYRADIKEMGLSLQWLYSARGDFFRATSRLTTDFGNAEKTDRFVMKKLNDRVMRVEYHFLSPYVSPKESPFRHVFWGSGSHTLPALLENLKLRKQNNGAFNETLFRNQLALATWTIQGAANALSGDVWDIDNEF
T2 sequence (Q9NPH2 whole entry): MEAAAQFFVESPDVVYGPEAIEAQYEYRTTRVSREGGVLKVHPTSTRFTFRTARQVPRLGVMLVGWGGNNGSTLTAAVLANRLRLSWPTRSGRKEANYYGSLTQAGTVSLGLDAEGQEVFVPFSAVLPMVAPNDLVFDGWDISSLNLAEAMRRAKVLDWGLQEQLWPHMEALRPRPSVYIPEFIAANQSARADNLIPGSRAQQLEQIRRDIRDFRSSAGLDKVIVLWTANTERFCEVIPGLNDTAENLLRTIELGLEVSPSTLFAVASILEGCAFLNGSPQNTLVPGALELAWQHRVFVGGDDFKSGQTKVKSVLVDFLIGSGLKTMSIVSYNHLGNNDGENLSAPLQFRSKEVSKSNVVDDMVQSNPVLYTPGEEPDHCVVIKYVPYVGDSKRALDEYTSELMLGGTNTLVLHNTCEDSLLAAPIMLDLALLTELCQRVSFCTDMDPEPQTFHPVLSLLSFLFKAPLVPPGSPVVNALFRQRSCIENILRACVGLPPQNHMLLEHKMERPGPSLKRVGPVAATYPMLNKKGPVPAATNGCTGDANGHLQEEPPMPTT

For `CC1(C)[C@H]2COc3ccc4ccccc4c3[C@H]2N=C2SC(c3ccccc3)=C(c3ccccc3)N21` [Compound 1t], the “Affinity to transferrin receptors” value [1] was “higher affinity”, the “Affinity to bind inositol-3-phosphate synthase” value [2] was “dose-dependent affinity” and the “Sensitivity of G2/M-arrested cells versus asynchronous cells” value ([3]; MCF7 cells synchronized at specific phases of the cell cycle) was “more sensitive”. For the same compound, the “Cells arrested at G2/M phase” value ([3]; synchronized MCF7 cells) was 18.5%, the Apoptotic induction [4] was “mitochondrial-mediated apoptotic induction with caspase-3 activation” and the IC50 [5] was 1500 nM. The IC50 [6] was 1900 nM, the IC50 [7] was 1910 nM and the ATR phosphorylation [8] was “phosphorylates ATR”.
